Test results taken from US7250434B2, “CCK-1 receptor modulators” (Janssen Pharmaceutica N.V., priority 2003, dated 2007).

Molecular target: T1, CCK-1 receptor (Homo sapiens, UniProt P32238)
T1 construct: expressed in transfected cells; membranes
T1 sequence (P32238 1-428): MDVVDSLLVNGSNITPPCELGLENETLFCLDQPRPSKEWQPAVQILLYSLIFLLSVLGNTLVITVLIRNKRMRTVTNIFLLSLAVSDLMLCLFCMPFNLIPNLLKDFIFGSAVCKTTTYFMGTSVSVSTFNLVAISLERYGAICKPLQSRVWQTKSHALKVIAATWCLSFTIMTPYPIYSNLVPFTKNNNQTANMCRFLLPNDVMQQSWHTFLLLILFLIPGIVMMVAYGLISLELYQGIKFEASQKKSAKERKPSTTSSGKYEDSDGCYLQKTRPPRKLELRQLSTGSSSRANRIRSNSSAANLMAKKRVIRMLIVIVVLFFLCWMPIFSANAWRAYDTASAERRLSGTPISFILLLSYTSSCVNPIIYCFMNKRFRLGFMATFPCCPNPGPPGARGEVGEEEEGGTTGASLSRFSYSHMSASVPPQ
Assay: [125I]-BH-CCK-8S competition binding to membranes of CHO-K1 cells stably transfected with the CCK-1 receptor
Details: membranes of CCK-1 transfected CHO-K1 cells; 20 pM [125I]-BH-CCK-8S; 0.3 μM PD-134,308 present; 60 min at 21±3° C.; Cheng-Prusoff
Method: CHO-K1 cells that had undergone stable transfection with the CCK-1 receptor were grown in DMEM supplemented with L-glutamine (2 mM), penicillin (50 units/mL) and streptomycin (50 μg/mL). Cells were cultured under continuous G418 selection (2 mM) and were harvested using a rubber cell scraper. CHO-K1 cells were sub-cultured a maximum of ten times before being reseeded from the original stocks.
Membranes were prepared from the stably transfected CHO-K1 cells. Frozen cell pellets (−40° C.) were thawed in 14 mL of buffer A (10 mM HEPES, 130 mM NaCl, 4.7 mM KCl, 5 mM MgCl, 1 mM EGTA and 15.4 mg/100 mL bacitracin at pH 7.2), adapted from Harper et al. (Br. J. Pharmacol. 1996, 118:1717-1726). The thawed pellets were homogenized using a Polytron PT-10 (7×1 s). The homogenates were centrifuged for 5 min at 1500 rpm (600×g), and the resulting pellets were discarded. The supernatants were re-centrifuged in order to collect the receptor-membrane pellets (25 min 15,000 rpm; 39,800×g), which were re-suspended in buffer A.
All assays were conducted in 96-well plates (GF/B millipore filter plates) using buffer A, with 0.3 μM PD-134,308, for the dilutions. The CCK-2 receptor ligand was included to eliminate the contribution of this receptor subtype to the binding. For the optimal cell number determination experiments 20 pM [^125I]-BH-CCK-8S (50 μL 60 pM solution) was incubated with a range of cell concentrations (2.5×105 to 12.5×10^5 cells/well) in a total volume of 150 μL. Total binding of [^125I]-BH-CCK-8S was determined in the presence of 15 μL of buffer A. Non-specific binding of [^125I]-BH-CCK-8S was determined in the presence of 15 μL of 100 μM 2-naphthalenesulphonyl L-aspartyl-(2-phenethyl)amide (2-NAP: see R. A. Hull et al. Br. J. Pharmacol. 1993, 108:734-740), a CCK-1 receptor selective antagonist that is structurally unrelated to the radioligand [^125I]-BH-CCK-8S. The assay preparation was incubated for 1 h at 21±3° C., and then the assay was terminated upon rapid filtration of the preparation under reduced pressure. The loaded filters were washed three times using undiluted PBS (100 μL), and then the residues were transferred to 5 mL scintillation tubes. Bound radioactivity was determined using a gamma counter (count time=1 min). From these experiments a cell concentration of 1 pellet in 40 mL of buffer (2.5×10^6 cells/mL) was chosen for use in other assays (below). To validate the radioligand concentration and incubation time for the assay, saturation and kinetic binding studies were also conducted (see M. F. Morton, The Pharmacological Characterization of Cholecystokinin Receptors in the Human Gastrointestinal Tract. PhD Thesis, University of London, 2000). The affinity of novel compounds was estimated by incubating membrane preparations with 15 μL of competing ligand (0.1 pM-1 mM) for 60 min at 21±3° C. The assay was then terminated according to the procedure outlined above.
The pKi values were determined using the equation of Y.-C. Cheng and W. H. Prusoff (Biochem. Pharmacol. 1973, 22(23):3099-3108):
[formula] To circumvent problems associated with computer-assisted data analysis of compounds with low affinity, the data obtained in the current study were weighted according to a method described by Morton (2000). In brief, 100% and 0% specific binding were defined independently using total binding and binding obtained in the presence of a high concentration of the reference antagonist, 2-NAP.

| Ki | Compound |
| --- | --- |
| 31.6 nM | COc1ccc(-c2[nH]c(CC(C(=O)O)c3cccc(C)c3)nc2-c2ccc(Cl)c(Cl)c2)cc1 (centres unmarked) [Example 24, 3-[4-(3,4-Dichloro-phenyl)-5-(4-methoxy-phenyl)-1H-imidazol-2-yl]-2-m-tolyl-propionic acid] |
| 31.6 nM | COc1ccc(-c2[nH]c(CC(C(=O)O)c3cccc(Cl)c3)nc2-c2ccc(Cl)c(Cl)c2)cc1 (centres unmarked) [Example 25, 2-(3-Chloro-phenyl)-3-[4-(3,4-dichloro-phenyl)-5-(4-methoxy-phenyl)-1H-imidazol-2-yl]-propionic acid] |
| 39.8 nM | COc1ccc(-c2[nH]c(CC(C(=O)O)c3cccc4ccccc34)nc2-c2ccc(Cl)c(Cl)c2)cc1 (centres unmarked) [Example 26, 3-[4-(3,4-Dichloro-phenyl)-5-(4-methoxy-phenyl)-1H-imidazol-2-yl]-2-naphthalen-1-yl-propionic acid] |
| 50.1 nM | COc1ccc(-c2[nH]c(CC(C(=O)O)c3cccc(C(F)(F)F)c3)nc2-c2ccc(Cl)c(Cl)c2)cc1 (centres unmarked) [Example 27, 3-[4-(3,4-Dichloro-phenyl)-5-(4-methoxy-phenyl)-1H-imidazol-2-yl]-2-(3-trifluoromethyl-phenyl)-propionic acid] |
| 63.1 nM | COc1ccc(-c2[nH]c(CC(C(=O)O)c3ccc(Cl)cc3)nc2-c2ccc(Cl)c(Cl)c2)cc1 (centres unmarked) [Example 28, 2-(4-Chloro-phenyl)-3-[4-(3,4-dichloro-phenyl)-5-(4-methoxy-phenyl)-1H-imidazol-2-yl]-propionic acid] |
| 126 nM | COc1ccc(-c2[nH]c(CC(C(=O)O)c3ccc(C)cc3)nc2-c2ccc(Cl)c(Cl)c2)cc1 (centres unmarked) [Example 29, 3-[4-(3,4-Dichloro-phenyl)-5-(4-methoxy-phenyl)-1H-imidazol-2-yl]-2-p-tolyl-propionic acid] |
| 20 nM | Cc1ccc(-c2nc(CC(C(=O)O)c3cccc(C)c3)[nH]c2-c2ccc(C)cc2)cc1 (centres unmarked) [Example 30, 3-(4,5-Di-p-tolyl-1H-imidazol-2-yl)-2-m-tolyl-propionic acid] |
| 39.8 nM | Cc1ccc(-c2nc(CC(C(=O)O)c3cccc(C)c3)n(C)c2-c2ccc(C)cc2)cc1 (centres unmarked) [Example 31, 3-(1-Methyl-4,5-di-p-tolyl-1H-imidazol-2-yl)-2-m-tolyl-propionic acid] |
| 398 nM | O=C(O)C(Cc1nc(-c2ccccc2Cl)c(-c2ccccc2Cl)[nH]1)c1cccc2ccccc12 (centres unmarked) [Example 32, 3-[4,5-Bis-(2-chloro-phenyl)-1H-imidazol-2-yl]-2-naphthalen-1-yl-propionic acid] |
| 2510 nM | COc1cccc(-c2nc(CC(C(=O)O)c3cccc4ccccc34)[nH]c2-c2cccc(OC)c2)c1 (centres unmarked) [Example 33, 3-[4,5-Bis-(3-methoxy-phenyl)-1H-imidazol-2-yl]-2-naphthalen-1-yl-propionic acid] |
| 10000 nM | O=C(O)C(Cc1nc(-c2ccc(F)cc2)c(-c2ccc(F)cc2)[nH]1)c1cccc2ccccc12 (centres unmarked) [Example 34, 3-[4,5-Bis-(4-fluoro-phenyl)-1H-imidazol-2-yl]-2-naphthalen-1-yl-propionic acid] |
